Laboratory results: ChEMBL document CHEMBL1146402, “New Oxygenated Sesquiterpenes from the Indonesian Soft Coral Nephthea chabrolii” (J Nat Prod, 1997)
In brackets after ≈: the same amount, converted by molar mass.

What was measured:
Spodoptera littoralis [1] = test: Insecticidal activity in Spodoptera littoralis assessed as inhibition of larval growth at 530 ppm after 6 days by chronic feeding experiment; type: functional; conditions: 144 h
Spodoptera littoralis [2] = test: Insecticidal activity in Spodoptera littoralis assessed as inhibition of larval growth after 6 days by chronic feeding experiment; type: functional, organism-based

CC1=C2C[C@H](C(C)(C)O)CC[C@H](C)[C@@H]2CC1=O [HYDROXYCOLORENONE]
inhibition at 530 ppm (Spodoptera littoralis [1]): 90% | EC50 (Spodoptera littoralis [2]): 8.8 ppm | LC50 (Spodoptera littoralis [2]; Spodoptera littoralis, 144 h): 453 µg/mL (≈ 1920 µM)
